Data reported in US20230220224A1, “AQUEOUS DISPERSION AND IMAGE RECORDING METHOD” (FUJIFILM CORPORATION, priority 2020, published 2023).

Conditions: in water at 20° C.

Structure (SMILES) | Neutralizer Solubility in water
CC(C)NC(C)C [DIPA, diisopropylamine] | 10 g/100 mL
CN1C(C)(C)CC(O)CC1(C)C [Example 4-OH-PMP, 4-hydroxy-1,2,2,6,6-pentamethylpiperidine] | 4.8 g/100 mL
